Reference: patent publication US9809573B2, “Substituted pyridine derivatives useful as GSK-3 inhibitors” (priority 2013, dated 2017)
Read-outs that look alike come from different tables or passages of the source.

Assays:
GSK3α = GSK3α (Homo sapiens, UniProt P49840); assay: biochemical; conditions: second value of the cell; 250 pM enzyme, 20 uM ATP, 20 hours at room temperature; read-out: GSK3β/α (nM): GSK3α IC50
Method in brief: (§1)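 Reaction: 20 h, room temperature. Quench: 35 mM EDTA. Detection: substrate/product separation by chip electrophoresis. Analysis: eleven concentrations, non-linear regression to IC50.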

GSK3β = GSK3β (Homo sapiens, UniProt P49841); assay: GSK3β kinase assay (Caliper LabChip3000, fluoresceinated peptide substrate); format: biochemical
GSK3β, sequence (P49841 whole entry, species assumed): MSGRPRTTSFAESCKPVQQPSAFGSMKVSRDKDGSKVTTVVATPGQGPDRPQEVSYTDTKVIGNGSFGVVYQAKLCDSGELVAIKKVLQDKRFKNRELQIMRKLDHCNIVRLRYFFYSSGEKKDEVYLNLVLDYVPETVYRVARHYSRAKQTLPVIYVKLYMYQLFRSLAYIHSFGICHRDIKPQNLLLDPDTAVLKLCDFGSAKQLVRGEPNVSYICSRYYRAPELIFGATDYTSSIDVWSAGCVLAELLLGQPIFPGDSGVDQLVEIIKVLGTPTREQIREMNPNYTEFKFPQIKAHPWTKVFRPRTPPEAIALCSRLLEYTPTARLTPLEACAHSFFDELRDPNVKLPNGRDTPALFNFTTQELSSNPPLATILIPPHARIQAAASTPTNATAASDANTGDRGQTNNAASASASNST
Method in brief: as §1

pTau = pTau assay (method not described); format: cell-based; conditions: read-out: pTau
[1] = first value of the cell, 250 pM enzyme, 20 uM ATP, 20 hours at room temperature, read-out: GSK3β/α (nM): GSK3β IC50

GSK3α, sequence (P49840 whole entry, species assumed): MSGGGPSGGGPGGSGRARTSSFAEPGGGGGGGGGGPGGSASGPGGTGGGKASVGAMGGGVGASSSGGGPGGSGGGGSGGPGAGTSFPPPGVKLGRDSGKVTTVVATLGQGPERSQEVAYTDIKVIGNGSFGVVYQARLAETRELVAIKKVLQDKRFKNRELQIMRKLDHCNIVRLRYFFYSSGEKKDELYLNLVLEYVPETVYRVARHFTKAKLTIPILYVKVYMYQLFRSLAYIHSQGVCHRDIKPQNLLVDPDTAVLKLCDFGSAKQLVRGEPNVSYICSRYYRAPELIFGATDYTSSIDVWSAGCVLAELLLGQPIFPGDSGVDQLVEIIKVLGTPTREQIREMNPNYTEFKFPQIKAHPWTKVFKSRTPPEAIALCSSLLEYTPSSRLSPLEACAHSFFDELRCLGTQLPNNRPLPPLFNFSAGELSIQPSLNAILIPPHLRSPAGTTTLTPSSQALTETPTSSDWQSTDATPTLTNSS

IC50 (GSK3α) [nM] | IC50 (GSK3β; [1]) [nM] | IC50 (pTau) [nM] | SMILES | IC50 (GSK3β) [nM]
2.5 | 7.7 | 425 | CCOc1cccc(-c2cncc(NC(=O)c3ccnc(NC(=O)C4CC4)c3)c2)c1Cl [Example 158, N-(5-(2-chloro-3-ethoxyphenyl)pyridin-3-yl)-2-(cyclopropanecarboxamido)isonicotinamide] | 
0.6 | 1.7 | 175 | O=C(Nc1cncc(-c2cncc(F)c2)c1)c1ccnc(NC(=O)C2CC2)c1 [Example 161, 2-(cyclopropanecarboxamido)-N-(5′-fluoro-[3,3′-bipyridin]-5-yl)isonicotinamide] | 
1.7 | 6 | 130 | O=C(Nc1cncc(-c2ccc(F)nc2)c1)c1ccnc(NC(=O)C2CC2)c1 [Example 163, 2-(cyclopropanecarboxamido)-N-(6′-fluoro-[3,3′-bipyridin]-5-yl)isonicotinamide] | 
1.4 | 6 | 270 | COc1cccc(-c2cncc(NC(=O)c3ccnc(NC(=O)C4CC4)c3)c2)n1 [Example 164, 2-(cyclopropanecarboxamido)-N-(6-methoxy-[2,3′-bipyridin]-5′-yl)isonicotinamide] | 
1.3 | 3.8 | 125 | O=C(Nc1cncc(-c2cccc(F)n2)c1)c1ccnc(NC(=O)C2CC2)c1 [Example 165, 2-(cyclopropanecarboxamido)-N-(6-fluoro-[2,3′-bipyridin]-5′-yl)isonicotinamide] | 
11 | 44 | 360 | O=C(Nc1cncc(-c2ccnc(F)c2F)c1)c1ccnc(NC(=O)C2CC2)c1 [Example 166, 2-(cyclopropanecarboxamido)-N-(2′,3′-difluoro-[3,4′-bipyridin]-5-yl)isonicotinamide] | 
9.3 | 20 | 5500 | O=C(Nc1cnccc1-c1cc(Br)cc(Br)c1)c1ccnc(NC(=O)C2CC2)c1 [Example 167, 2-(cyclopropanecarboxamido)-N-(4-(3,5-dibromophenyl)pyridin-3-yl)isonicotinamide] | 
2.2 | 6.8 | 240 | O=C(Nc1cnccc1-c1ccc(Br)cc1)c1ccnc(NC(=O)C2CC2)c1 [Example 168, N-(4-(4-bromophenyl)pyridin-3-yl)-2-(cyclopropanecarboxamido)isonicotinamide] | 
1.5 | 2.8 | 170 | O=C(Nc1cnccc1-c1ccc(I)cc1)c1ccnc(NC(=O)C2CC2)c1 [Example 169, 2-(cyclopropanecarboxamido)-N-(4-(4-iodophenyl)pyridin-3-yl)isonicotinamide] | 
2.9 | 8.1 | 570 | O=C(Nc1cnccn1)c1ccnc(NC(=O)C2CC2)c1 [Example 170, 2-(Cyclopropanecarboxamido)-N-(pyrazin-2-yl)isonicotinamide] | 
170 | 370 | 4000 | CC(C)n1cc(NC(=O)c2ccnc(NC(=O)C3CC3)c2)cn1 [Example 171, 2-(cyclopropanecarboxamido)-N-(1-isopropyl-1H-pyrazol-4-yl)isonicotinamide] | 
14 | 35 | 700 | O=C(Nc1cnn(CC(F)(F)F)c1)c1ccnc(NC(=O)C2CC2)c1 [Example 172, 2-(cyclopropanecarboxamido)-N-(1-(2,2,2-trifluoroethyl)-1H-pyrazol-4-yl)isonicotinamide] | 
14 | 18 | 2500 | O=C(Nc1cncs1)c1ccnc(NC(=O)C2CC2)c1 [Example 173, 2-(cyclopropanecarboxamido)-N-(thiazol-5-yl)isonicotinamide] | 
33 | 68 | 3700 | Cc1c(NC(=O)c2ccnc(NC(=O)C3CC3)c2)cnn1C [Example 175, 2-(cyclopropanecarboxamido)-N-(1,5-dimethyl-1H-pyrazol-4-yl)isonicotinamide] | 
12 | 14 | 1200 | O=C(Nc1cncnc1)c1ccnc(NC(=O)C2CC2)c1 [Example 178, 2-(Cyclopropanecarboxamido)-N-(pyrimidin-5-yl)isonicotinamide] | 
40 | 160 | 3000 | O=C(Nc1cncnc1N1CCC(F)(F)CC1)c1ccnc(NC(=O)C2CC2)c1 [Example 179, 2-(Cyclopropanecarboxamido)-N-(4-(4,4-difluoropiperidin-1-yl)pyrimidin-5-yl)isonicotinamide] | 
1.2 | 6.2 | 190 | O=C(Nc1cncc(-c2ccccc2F)n1)c1ccnc(NC(=O)C2CC2)c1 [Example 180, 2-(Cyclopropanecarboxamido)-N-(6-(2-fluorophenyl)pyrazin-2-yl)isonicotinamide] | 
470 | 1300 | ≥ 10000 | O=C(Nc1nc2cnccc2s1)c1ccnc(NC(=O)C2CC2)c1 [Example 182, 2-(cyclopropanecarboxamido)-N-(thiazolo[4,5-c]pyridin-2-yl)isonicotinamide] | 
200 | 530 | ≥ 10000 | NC(=O)c1cnc(NC(=O)c2ccnc(NC(=O)C3CC3)c2)s1 [Example 183, 2-(2-(cyclopropanecarboxamido)isonicotinamido)thiazole-5-carboxamide] | 
170 | 800 | ≥ 10000 | Cc1cccc2sc(NC(=O)c3ccnc(NC(=O)C4CC4)c3)nc12 [Example 184, 2-(cyclopropanecarboxamido)-N-(4-methylbenzo[d]thiazol-2-yl)isonicotinamide] | 
1.2 | 2.7 | 210 | CC(C)C(=O)Nc1cc(C(=O)Nc2cnc(F)cc2OCC(F)F)ccn1 [Example 187, N-(4-(2,2-difluoroethoxy)-6-fluoropyridin-3-yl)-2-isobutyramidoisonicotinamide] | 
19 | 39 | 2200 | CC(C)C(=O)Nc1cc(C(=O)Nc2cnccc2OCCN2CCCC2)ccn1 [Example 188, 2-Isobutyramido-N-(4-(2-(pyrrolidin-1-yl)ethoxy)pyridin-3-yl)isonicotinamide] | 

SMILES | IC50 (GSK3α) [nM] | IC50 (GSK3β; [1]) [nM] | IC50 (pTau) [nM] | IC50 (GSK3β) [nM]
O=C(Nc1cncc(-c2cncc(Cl)c2)c1)c1ccnc(NC(=O)C2CC2)c1 [Example 160] | 1.6 |  | 150 | 3.9
Cc1ccc(-c2cncc(NC(=O)c3ccnc(NC(=O)C4CC4)c3)c2)cn1 [Example 162, 2-(cyclopropanecarboxamido)-N-(6′-methyl-[3,3′-bipyridin]-5-yl)isonicotinamide] | 1.1 |  | 115 | 2.5
CC(C)C(=O)Nc1cc(C(=O)Nc2cnccc2-c2ccccc2)ccn1 [Example 185, 2-Isobutyramido-N-(4-phenylpyridin-3-yl)isonicotinamide] | 4.2 |  | 180 | 1.4
CC(C)C(=O)Nc1cc(C(=O)Nc2cnccc2-c2ccc(Cl)cc2)ccn1 [Example 186, N-(4-(4-chlorophenyl)pyridin-3-yl)-2-isobutyramidoisonicotinamide] | 6.5 |  | 360 | 20
CC(C)C(=O)Nc1cc(C(=O)Nc2cnccc2OCCN2CCOCC2)ccn1 [Example 189, 2-Isobutyramido-N-(4-(2-morpholinoethoxy)pyridin-3-yl)isonicotinamide] | 1.1 |  | 99 | 2.3
